# Experimental data taken from the NIST ThermoML archive (doi:10.1016/j.jct.2013.03.008).
# ± gives the expanded uncertainty stated by the source.
# Test: cn = amount concentration of the nth substance listed, in mol/dm3
# Settings: 313 K, Ring tensiometer
smiles,measurement,setting,value
CCCCCCCCCCCC(=O)OCC[N+](C)(C)CCC[N+](C)(C)CCOC(=O)CCCCCCCCCCC.[Br-].[Br-] + O,surface tension liquid-gas,c1 = 0.000412,30.2 ± 0.5 mN/m
CCCCCCCCCCCCOC(=O)C[N+](C)(C)CC[N+](C)(C)CC(=O)OCCCCCCCCCCCC.[Br-].[Br-] + O,surface tension liquid-gas,c1 = 0.000168,26.4 ± 0.4 mN/m
CCCCCCCCCCCCOC(=O)C[N+](C)(C)CCC[N+](C)(C)CC(=O)OCCCCCCCCCCCC.[Br-].[Br-] + O,surface tension liquid-gas,c1 = 0.000228,27.2 ± 0.4 mN/m
